# Laboratory results: PMC5801568, “Liquid chromatography–tandem mass spectrometry for the simultaneous quantitation of ceftriaxone, metronidazole and hydroxymetronidazole in plasma from seriously ill, severely malnourished children” (Wellcome Open Research, 2018)
# Assays:
# [1] = Bench-top (short term) stability in matrix at room temperature; type: physicochemical, human; conditions: 8 h, n=5
# Experimental: (§1) Stability (ST%) studies were evaluated via sample and solution concentrations, where:
# (§2) ST% is the stability of the chemical compound in the sample over the period of time. c 0 is the initial concentration, determined without introducing any extra pauses in the analysis process. c t is the concentration obtained after the storage period with time t.
# Bench-top stability was evaluated by keeping plasma samples at low and high quality control levels at ambient temperatures (< 28°C) for at least 8h then processed and analyzed. Selected ambient temperature covered the temperature range for study samples, as ambient temperatures remained < 28°C.
# [2] = Freeze-thaw stability (3 cycles at -20°C); type: physicochemical, human; conditions: 3 freeze-thaw cycles at -20°C, n=5
# Experimental: as §1, §2
# Spiked plasma samples were subjected to three freeze-thaw cycles at -20°C and the analytes concentrations assessed after the third cycle. This was done also for plasma ultra-filtrate spiked with CEF to assess the stability of free ceftriaxone in calibrators and quality control samples.
# [3] = Auto-sampler (processed sample) stability; type: physicochemical, human; conditions: 24 h at 18°C, n=5
# Experimental: as §1, §2
# Processed sample stability was assessed by letting the samples stay in the autosampler at 18°C for 24h and then they were analyzed the following day. This was done to ensure data integrity in case of equipment failure and initiation of a re-run.
# [4] = Long-term stability at -20°C; type: physicochemical, human; conditions: 90 days at -20°C, n=5
# Experimental: as §1, §2
# Long term stability of the analytes was studied over a period that covered the duration of storage of the study samples from collection to the last sample analysis, this ensured that the integrity of study samples was not compromised over the period of storage. To investigate long term stability, two sets of sample aliquots were prepared at concentrations corresponding to low and high quality control levels. The first set was processed and analyzed at day 1 and the second set after 90 days of storage at -20°C. The analyte concentrations in the plasma and ultra-filtrate samples at 90 days of storage was compared with those obtained on day 1 to determine the percentage stability.
# [5] = Sub-stock solution stability at -20°C; type: physicochemical; conditions: solution in 20% methanol, 28 days at -20°C; nominal conc. MET 50, CEF 300, MET-OH 30 µg/mL
# Experimental: Stock solutions of CEF (5 mg of the base/mL), MET and MET-OH (both 1 mg/mL) were prepared by dissolving an appropriate amount of each compound in 20% methanol. The stock solutions were further serially diluted with 20% methanol to make working standard solutions used to spike the blank plasma to produce 0.4, 12, 24, 48, 96,150,220, 300 µg/mL CEF and 1.2, 120, 240 µg/mL QCs; 0.05, 1.0, 2.0, 4.0, 8.0, 16.0, 32.0, 50 µg/mL MET and 0.15, 20, 40 µg/mL QCs; 0.02, 0.8, 1.6, 3.2, 6.4, 13, 20, 30 µg/mL MET-OH and 0.06, 12, 24 µg/mL QCs. Stock solution of CEFU (IS) was prepared by dissolving appropriate amount of the compound in acetonitrile, the stock solution was serially diluted with acetonitrile to make working standard solutions of 1.25 µg/mL and 1 µg/mL. All the stock solutions were stored at -20°C, protected from light (in amber sample vials) and used within three months.
# Sub-stock solution stability was evaluated for CEF, MET and MET-OH, by comparing the response generated from the same solution at preparation and after being stored at -20°C for a period of 28 days. […] The stability was reported as coefficient of variation between the initial concentration and the concentration at day 28.
# [6] = Plasma concentrations in hospitalized children with severe acute malnutrition (LC-MS/MS); type: in vivo; conditions: human, other: intravenous (CEF) and oral (MET), one study participant, oral MET 7.5 mg/Kg given 15 min before; for concentration at 5 min: 5 min after ceftriaxone IV (80 mg/kg); for concentration at 30 min: 30 min after ceftriaxone IV (80 mg/kg)
# Experimental: Total drug. To a 50 µL aliquot of plasma (blank, standard, quality control, or patient sample) 200 µL of internal standard (CEFU; of a 1.25 µg/mL solution in acetonitrile) was added. The 1.5 mL polypropylene tubes were vortex-mixed for 3 minutes to precipitate the plasma proteins, followed by centrifugation (4000 x g; 10 min, 4°C). The supernatant (100 µL) was transferred into another clean 1.5 mL polypropylene tube and diluted with 400 µL of 20% methanol in water. The samples were vortex-mixed for 3 minutes and submitted for analysis by LC-MS/MS.
# The validated method was successfully applied to a pharmacokinetic study of CEF, MET, MET-OH and unbound ceftriaxone in hospitalized children with complicated severe acute malnutrition (SAM) following an oral administration of MET and intravenous administration of CEF over the course of 72 hours.
# 81 hospitalized children with SAM and requiring IV antibiotics according to WHO and national guidelines were recruited (after obtaining ethical approval from the Kenya Medical Research Institute Scientific and Ethics Review Unit, approval number: KEMRI/SERU/CGMR-C023-3161 and informed consent from the parents/guardians) and treated with an oral dose of 7.5mg/Kg MET (Flagyl ®oral suspension, 200 mg/5 mL) three times daily and IV injection of 80 mg/kg CEF (Ceftriaxone Rocephin ®, 250 mg) once daily 15 min after metronidazole dose. Blood samples (3.0 mL) were collected into Li-heparinized tubes, a pre-dose sample was taken before administering the drugs. Further sampling at 5, 30, 60 min after ceftriaxone dose and 2, 4, and 8 h after metronidazole dose. The sampling plan was such that each patient had only three blood draws after the base-line sample. The blood was centrifuged (3000 rpm; 5 min), plasma separated and stored at -80°C until analysis time.
# [7] = design: method as in Wong et al. [17]; conditions: ref Wong et al. [17]; cited from earlier work
# [8] = design: method as in Silva et al. [12]; conditions: over a period of 48h; ref Silva et al. [12]; cited from earlier work
# [9] = design: method as in Ilomuanya et al. [15]; conditions: after the fourth freeze/thaw cycle; ref Ilomuanya et al. [15]; cited from earlier work
# [10] = design: method as in Ilomuanya et al. [15]; conditions: at 72h; ref Ilomuanya et al. [15]; cited from earlier work
# [11] = plasma ultra-filtrate, spiked conc. 1.2 µg/mL
# [12] = plasma ultra-filtrate, spiked conc. 240 µg/mL
# [13] = plasma, high QC spiked conc. (MET 40, CEF 240, MET-OH 24 µg/mL)
# [14] = plasma, low QC spiked conc. (MET 0.15, CEF 1.2, MET-OH 0.06 µg/mL)
# [15] = processed plasma samples, high QC spiked conc. (MET 40, CEF 240, MET-OH 24 µg/mL)
# [16] = processed plasma samples, low QC spiked conc. (MET 0.15, CEF 1.2, MET-OH 0.06 µg/mL)
Structure (SMILES),"Benchtop stability in matrix ST % [1, 13]","Benchtop stability in matrix ST % [1, 14]","Freeze-thaw stability ST % [2, 13]","Freeze-thaw stability ST % [2, 14]","Auto-sampler stability ST % [3, 15]","Auto-sampler stability ST % [3, 16]","Long-term stability ST % [4, 13]","Long-term stability ST % [4, 14]",Sub-stock solution stability ST % [5],concentration at 5 min [6],concentration at 30 min [6],other results
"CO/N=C(\C(=O)N[C@@H]1C(=O)N2C(C(=O)O)=C(CSc3nc(=O)c(=O)[nH]n3C)CS[C@H]12)c1csc(N)n1 [CEF, Ceftriaxone sodium]",96.0%,98.1%,95.3%,95.8%,95.4%,90.6%,90.6%,92.2%,96.1%,266000 ng/mL,74400 ng/mL,"Benchtop stability in matrix ST % [1, 11]: 99.8%; Benchtop stability in matrix ST % [1, 12]: 105.8%; Freeze-thaw stability ST % [2, 11]: 93.0%; Freeze-thaw stability ST % [2, 12]: 92.2%; Auto-sampler stability ST % ([3]; processed plasma ultra-filtrate, spiked conc. 1.2 µg/mL): 98.4%; Auto-sampler stability ST % ([3]; processed plasma ultra-filtrate, spiked conc. 240 µg/mL): 94.2%; Long-term stability ST % [4, 11]: 94.4%; Long-term stability ST % [4, 12]: 92.4%; Average protein binding [7]: 89.5%"
"Cc1ncc([N+](=O)[O-])n1CCO [MET, metronidazole]",98.3%,105.8%,93.5%,96.1%,93.7%,101.5%,93.8%,95.2%,95.8%,2540 ng/mL,1990 ng/mL,Mean stability [8]: 93.6% - 100.6%; Concentration remaining after freeze/thaw [9]: < 90%; Autosampler stability [10]: 40.6%–58.7%
"O=[N+]([O-])c1cnc(CO)n1CCO [MET-OH, 1-(2-hydroxyethyl)-2-hydroxymethyl-5-nitroimidazole]",102.2%,99.5%,100.7%,97.2%,92.8%,103.3%,92.0%,99.1%,95.4%,130 ng/mL,660 ng/mL,–
